The supplement of paper PMC12463676, “Small-molecule dissolution of stress granules by redox modulation benefits ALS models” (Nature Chemical Biology, 2025)

Tests used:
potassium arsenate = compound: O=[As]([O-])(O)O.[K+] [potassium arsenate]; assay: thermal stability z-score vs DMSO; higher = more thermally stabilized by treatment; details: HeLa; arsenate concentration 1 mM
Method: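 Cellular thermal proteome profiling in HeLa cells treated with 1 mM arsenate for 1 h (DMSO pretreatment), heated to ten temperatures (37-66.3 °C). Soluble protein was quantified by TMT mass spectrometry relative to DMSO controls; the thermal stability score was transformed to a z-score; mean of n = 3 experiments.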

lipoamide = compound: NC(=O)CCCCC1CCSS1 [lipoamide]; assay: as above; details: HeLa, lipoamide concentration 100 µM
Method: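 Cellular thermal proteome profiling in HeLa cells. Cells were treated with 100 µM lipoamide for 1 h, with or without 1 mM arsenate for a further 1 h, then heated to ten temperatures (37-66.3 °C), and soluble protein was quantified by TMT mass spectrometry relative to 0.1% DMSO controls. The thermal stability score (sum of log2 fold changes minus the abundance score) was transformed to a z-score; mean of n = 3 experiments.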

[1] = arsenate co-treatment: 1 mM arsenate 1 h
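Further: each temperature applied for 3 min, abundance score taken as mean log2 fold change at the two lowest temperatures, z-score obtained by mean subtraction and division by SD.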

UniProt Q9NVE7, sequence (Q9NVE7 whole entry): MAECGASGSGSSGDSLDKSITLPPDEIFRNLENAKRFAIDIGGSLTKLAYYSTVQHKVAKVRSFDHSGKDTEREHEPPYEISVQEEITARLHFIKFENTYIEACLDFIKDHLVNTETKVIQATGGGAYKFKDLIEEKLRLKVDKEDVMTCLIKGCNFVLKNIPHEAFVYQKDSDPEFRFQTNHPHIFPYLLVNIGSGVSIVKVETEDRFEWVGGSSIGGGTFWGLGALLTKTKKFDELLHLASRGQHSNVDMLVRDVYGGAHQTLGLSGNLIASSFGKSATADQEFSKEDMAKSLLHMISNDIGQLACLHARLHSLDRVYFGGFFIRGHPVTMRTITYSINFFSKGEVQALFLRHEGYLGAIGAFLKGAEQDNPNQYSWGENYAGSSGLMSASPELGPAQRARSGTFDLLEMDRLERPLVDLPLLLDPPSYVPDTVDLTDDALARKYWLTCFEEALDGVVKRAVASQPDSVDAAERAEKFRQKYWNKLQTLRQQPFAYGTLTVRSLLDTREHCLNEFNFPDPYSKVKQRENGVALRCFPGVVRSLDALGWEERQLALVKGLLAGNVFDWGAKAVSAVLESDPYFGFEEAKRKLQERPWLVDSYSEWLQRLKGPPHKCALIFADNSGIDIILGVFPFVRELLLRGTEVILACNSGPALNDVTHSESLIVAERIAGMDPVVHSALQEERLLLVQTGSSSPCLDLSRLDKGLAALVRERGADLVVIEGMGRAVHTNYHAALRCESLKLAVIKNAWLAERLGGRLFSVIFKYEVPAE
UniProt Q96TA2, sequence (Q96TA2 whole entry): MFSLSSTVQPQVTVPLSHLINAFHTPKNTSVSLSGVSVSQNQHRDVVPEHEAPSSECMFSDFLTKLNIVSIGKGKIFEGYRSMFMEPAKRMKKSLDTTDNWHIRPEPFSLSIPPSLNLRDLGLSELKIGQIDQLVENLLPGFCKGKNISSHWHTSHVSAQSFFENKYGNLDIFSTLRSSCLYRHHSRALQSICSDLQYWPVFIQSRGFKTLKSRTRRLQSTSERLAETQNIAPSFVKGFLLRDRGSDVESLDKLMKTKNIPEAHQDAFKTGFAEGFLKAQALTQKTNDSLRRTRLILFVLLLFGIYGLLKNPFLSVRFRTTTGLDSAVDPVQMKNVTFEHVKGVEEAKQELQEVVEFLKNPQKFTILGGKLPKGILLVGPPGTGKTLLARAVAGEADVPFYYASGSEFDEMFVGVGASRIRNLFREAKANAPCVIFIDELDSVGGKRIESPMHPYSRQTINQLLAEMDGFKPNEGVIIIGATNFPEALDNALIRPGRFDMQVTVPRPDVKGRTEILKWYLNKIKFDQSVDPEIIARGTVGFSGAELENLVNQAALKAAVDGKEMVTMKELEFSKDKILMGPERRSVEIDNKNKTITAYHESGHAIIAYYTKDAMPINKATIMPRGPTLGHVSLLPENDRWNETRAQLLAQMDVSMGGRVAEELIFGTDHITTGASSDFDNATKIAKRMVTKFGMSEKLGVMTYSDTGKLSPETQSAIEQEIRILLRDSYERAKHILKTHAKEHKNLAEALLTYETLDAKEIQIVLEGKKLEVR
UniProt Q13618, sequence (Q13618 whole entry): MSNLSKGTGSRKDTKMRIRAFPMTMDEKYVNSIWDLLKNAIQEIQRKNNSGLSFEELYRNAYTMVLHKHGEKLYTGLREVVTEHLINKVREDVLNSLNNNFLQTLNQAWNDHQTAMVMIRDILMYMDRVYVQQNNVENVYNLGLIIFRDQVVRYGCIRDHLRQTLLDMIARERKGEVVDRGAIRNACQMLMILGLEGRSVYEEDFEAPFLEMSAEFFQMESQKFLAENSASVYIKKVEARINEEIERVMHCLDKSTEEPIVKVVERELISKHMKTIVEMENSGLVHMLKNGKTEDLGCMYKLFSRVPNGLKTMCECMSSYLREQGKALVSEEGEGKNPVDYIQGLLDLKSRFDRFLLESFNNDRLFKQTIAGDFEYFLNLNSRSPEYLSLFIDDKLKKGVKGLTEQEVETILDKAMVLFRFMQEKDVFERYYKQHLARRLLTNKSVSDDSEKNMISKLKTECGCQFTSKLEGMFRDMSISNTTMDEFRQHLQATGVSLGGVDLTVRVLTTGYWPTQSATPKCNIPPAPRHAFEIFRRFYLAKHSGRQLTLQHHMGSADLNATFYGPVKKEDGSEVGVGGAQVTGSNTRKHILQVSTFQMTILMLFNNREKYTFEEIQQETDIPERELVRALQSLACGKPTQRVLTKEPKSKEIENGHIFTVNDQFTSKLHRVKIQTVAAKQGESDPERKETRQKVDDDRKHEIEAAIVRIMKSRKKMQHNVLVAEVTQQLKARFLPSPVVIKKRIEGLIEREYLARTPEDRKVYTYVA
UniProt A5PLN9, sequence (A5PLN9 whole entry): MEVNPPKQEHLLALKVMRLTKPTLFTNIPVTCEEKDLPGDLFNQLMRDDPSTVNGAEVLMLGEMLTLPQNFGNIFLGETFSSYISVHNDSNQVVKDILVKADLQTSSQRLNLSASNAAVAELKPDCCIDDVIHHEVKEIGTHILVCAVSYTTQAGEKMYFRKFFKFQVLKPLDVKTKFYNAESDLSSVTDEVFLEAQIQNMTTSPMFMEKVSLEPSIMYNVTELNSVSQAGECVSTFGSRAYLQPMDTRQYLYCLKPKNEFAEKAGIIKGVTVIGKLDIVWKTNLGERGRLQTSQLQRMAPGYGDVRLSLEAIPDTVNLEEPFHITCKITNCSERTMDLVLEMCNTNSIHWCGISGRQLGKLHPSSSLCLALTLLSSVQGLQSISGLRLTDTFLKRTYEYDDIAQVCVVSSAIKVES
UniProt Q9NV35, sequence (Q9NV35 whole entry): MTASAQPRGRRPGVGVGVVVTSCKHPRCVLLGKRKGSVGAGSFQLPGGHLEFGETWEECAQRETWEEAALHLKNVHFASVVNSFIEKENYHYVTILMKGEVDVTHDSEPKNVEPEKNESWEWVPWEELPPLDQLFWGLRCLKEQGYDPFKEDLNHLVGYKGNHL
UniProt Q9UQR1, sequence (Q9UQR1 whole entry): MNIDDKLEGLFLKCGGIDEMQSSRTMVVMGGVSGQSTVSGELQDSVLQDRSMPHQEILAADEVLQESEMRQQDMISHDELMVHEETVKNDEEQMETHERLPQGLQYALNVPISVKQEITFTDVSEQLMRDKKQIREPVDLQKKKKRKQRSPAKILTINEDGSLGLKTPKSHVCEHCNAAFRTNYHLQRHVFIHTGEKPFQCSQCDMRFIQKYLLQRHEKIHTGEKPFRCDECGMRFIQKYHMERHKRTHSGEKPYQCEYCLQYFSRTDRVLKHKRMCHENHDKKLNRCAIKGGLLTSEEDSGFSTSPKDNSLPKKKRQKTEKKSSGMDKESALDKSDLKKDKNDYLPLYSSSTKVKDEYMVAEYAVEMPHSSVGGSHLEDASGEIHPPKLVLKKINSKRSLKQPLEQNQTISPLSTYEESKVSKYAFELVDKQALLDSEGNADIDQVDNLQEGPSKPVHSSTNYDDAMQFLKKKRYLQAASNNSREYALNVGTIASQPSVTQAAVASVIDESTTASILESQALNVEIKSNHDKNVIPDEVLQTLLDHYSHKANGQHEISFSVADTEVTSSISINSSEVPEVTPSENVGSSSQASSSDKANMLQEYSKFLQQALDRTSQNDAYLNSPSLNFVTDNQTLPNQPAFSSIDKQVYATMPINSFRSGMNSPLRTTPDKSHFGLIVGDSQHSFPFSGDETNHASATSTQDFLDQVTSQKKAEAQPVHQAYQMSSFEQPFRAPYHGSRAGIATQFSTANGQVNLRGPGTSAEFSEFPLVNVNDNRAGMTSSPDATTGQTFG
UniProt Q92604, sequence (Q92604 whole entry): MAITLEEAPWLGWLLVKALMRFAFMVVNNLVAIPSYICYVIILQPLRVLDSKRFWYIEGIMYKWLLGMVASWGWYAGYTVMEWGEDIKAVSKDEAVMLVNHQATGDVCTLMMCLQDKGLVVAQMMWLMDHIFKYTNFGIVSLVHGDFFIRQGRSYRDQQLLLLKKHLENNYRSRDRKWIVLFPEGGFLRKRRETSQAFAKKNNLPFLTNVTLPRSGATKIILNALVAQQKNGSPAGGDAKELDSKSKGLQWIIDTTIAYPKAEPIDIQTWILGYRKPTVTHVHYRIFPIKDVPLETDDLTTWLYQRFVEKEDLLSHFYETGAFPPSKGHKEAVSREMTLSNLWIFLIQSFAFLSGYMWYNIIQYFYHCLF
UniProt Q14444, sequence (Q14444 whole entry): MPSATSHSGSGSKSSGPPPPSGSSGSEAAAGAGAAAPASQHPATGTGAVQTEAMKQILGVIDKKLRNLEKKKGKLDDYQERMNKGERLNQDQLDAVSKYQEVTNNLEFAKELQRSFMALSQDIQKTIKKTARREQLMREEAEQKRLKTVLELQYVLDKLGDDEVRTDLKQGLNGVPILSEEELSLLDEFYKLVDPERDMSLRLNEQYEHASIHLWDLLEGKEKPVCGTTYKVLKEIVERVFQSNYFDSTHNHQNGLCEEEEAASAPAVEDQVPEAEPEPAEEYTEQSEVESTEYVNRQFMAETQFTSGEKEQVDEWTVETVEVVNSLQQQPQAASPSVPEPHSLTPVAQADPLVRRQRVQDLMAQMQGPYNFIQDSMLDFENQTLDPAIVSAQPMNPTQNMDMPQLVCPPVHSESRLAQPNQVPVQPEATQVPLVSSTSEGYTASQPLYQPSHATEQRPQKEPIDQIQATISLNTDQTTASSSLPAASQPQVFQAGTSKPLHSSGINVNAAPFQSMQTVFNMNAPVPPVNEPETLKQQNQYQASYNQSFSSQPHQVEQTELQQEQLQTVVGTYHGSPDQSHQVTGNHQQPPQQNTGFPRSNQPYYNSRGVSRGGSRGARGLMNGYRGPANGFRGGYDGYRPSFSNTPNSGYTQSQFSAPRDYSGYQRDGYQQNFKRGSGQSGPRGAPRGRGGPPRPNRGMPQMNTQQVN
UniProt Q7Z309, sequence (Q7Z309 whole entry): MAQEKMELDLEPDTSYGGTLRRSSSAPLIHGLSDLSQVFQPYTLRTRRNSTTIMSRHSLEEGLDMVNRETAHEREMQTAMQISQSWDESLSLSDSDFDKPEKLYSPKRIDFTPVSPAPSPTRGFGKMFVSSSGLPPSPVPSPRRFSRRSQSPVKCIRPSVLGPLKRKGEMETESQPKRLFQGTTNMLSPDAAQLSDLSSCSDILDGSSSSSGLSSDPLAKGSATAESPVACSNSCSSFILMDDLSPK

Target	thermal stability z-score (potassium arsenate)	thermal stability z-score (lipoamide; [1])	thermal stability z-score (lipoamide; arsenate co-treatment: none)
LPGAT1 (UniProt Q92604)	0.251	-0.218	0.0487
YME1L1 (UniProt Q96TA2)	-0.298	-0.813	-0.425
UBE2C (UniProt O00762)	0.4	0.263	-0.139
MED23 (UniProt Q9ULK4)	-0.274	-0.0582	-0.269
TRAPPC13 (UniProt A5PLN9)	-0.371	0.252	-0.0347
HEATR5B (UniProt Q9P2D3)	-0.105	-1.25	-0.638
SDCBP (UniProt O00560)	0.364	0.541	0.425
IDE (UniProt P14735)	1.24	0.708	0.717
PITPNA (UniProt Q00169)	-0.787	0.386	0.434
LAMA5 (UniProt O15230)	0.045	-1.26	-0.93
DHDDS (UniProt Q86SQ9)	0.205	1.01	0.391
ALYREF (UniProt Q86V81)	-0.0562	0.585	0.0941
TSPYL1 (UniProt Q9H0U9)	0.0344	-0.00828	-0.153
TARSL2 (UniProt A2RTX5)	0.0722	-0.396	0.561
CCT5 (UniProt P48643)	0.118	-0.0313	-0.053
GTF2F1 (UniProt P35269)	-0.307	-0.208	-0.0526
GLMP (UniProt Q8WWB7)	3.11	2.79	3.71
CAV1 (UniProt Q03135)	1.02	0.49	0.74
MPG (UniProt P29372)	0.572	0.128	0.378
PPP4C (UniProt P60510)	0.166	0.813	0.205
PLEKHF1 (UniProt Q96S99)	-0.0692	-0.218	-0.0271
ZNHIT2 (UniProt Q9UHR6)	-0.28	-0.047	0.147
YEATS4 (UniProt O95619)	-0.33	0.802	0.865
NSUN6 (UniProt Q8TEA1)	-0.526	-0.141	-0.366
PSMA2 (UniProt P25787)	-0.132	0.38	0.455
FAM122B (UniProt Q7Z309)	-0.217	-0.0455	-0.144
PANK4 (UniProt Q9NVE7)	0.112	-0.399	-0.303
SP3 (UniProt Q02447)	-0.584	-0.177	-0.427

Target	thermal stability z-score (potassium arsenate)	thermal stability z-score (lipoamide; [1])	thermal stability z-score (lipoamide; arsenate co-treatment: none)
MRPL23 (UniProt Q16540)	0.525	0.205	0.755
CCDC91 (UniProt Q7Z6B0)	1.21	0.136	0.181
ASH2L (UniProt Q9UBL3)	-1.84	0.566	-0.319
CLINT1 (UniProt Q14677)	1.08	0.199	0.142
PPP1R3D (UniProt O95685)	-0.0465	-0.601	-0.982
GBA (UniProt P04062)	0.33	-0.361	-0.352
EEF1A1 (UniProt P68104)	0.2	-0.0408	0.166
CUL3 (UniProt Q13618)	0.158	-0.1	-0.422
TPRG1L (UniProt Q5T0D9)	0.921	-0.302	0.421
DHX9 (UniProt Q08211)	-1.4	0.398	1.65
UniProt E7EQ34|GOSR2	-0.878	-0.785	-0.401
CSDE1 (UniProt O75534)	-0.273	-0.138	0.281
ZNF148 (UniProt Q9UQR1)	0.415	0.37	0.389
TRADD (UniProt Q15628)	-0.497	0.0371	0.0442
CAPRIN1 (UniProt Q14444)	0.295	0.381	0.754
PCNT (UniProt O95613)	0.281	-0.505	0.496
ACSF3 (UniProt Q4G176)	0.298	-0.68	0.39
ITGA1 (UniProt P56199)	-0.126	0.216	0.171
TPR (UniProt P12270)	-2.19	2.13	1.1
NUDT15 (UniProt Q9NV35)	-0.373	0.686	0.121
DCUN1D4 (UniProt Q92564)	-0.0972	0.0389	-0.0281
LRBA (UniProt P50851)	0.326	0.015	0.0915
GPR108 (UniProt Q9NPR9)	0.967	0.455	-0.359
ST13 (UniProt P50502)	0.962	0.433	0.404
MRPL39 (UniProt Q9NYK5)	0.057	-0.499	-0.225
PPP2CA (UniProt P67775)	-1.92	0.297	0.0726
KANK1 (UniProt Q14678)	0.739	0.282	0.616
